Data from PMC3052630 (Bioorganic & medicinal chemistry letters, 2011).
Values belong to the molecule of their own block, whether it stands above or below them.

Tests used:
[1] = mouse plasma and brain levels; format: in vivo; settings: 10 mg/kg ip 2h
rat pharmacokinetics = format: in vivo
p38 = p38 (Homo sapiens, UniProt Q16539); assay: p38 biochemical inhibition / selectivity; settings: for selectivity over p38: JNK3 vs p38
p38, sequence (Q16539 whole entry): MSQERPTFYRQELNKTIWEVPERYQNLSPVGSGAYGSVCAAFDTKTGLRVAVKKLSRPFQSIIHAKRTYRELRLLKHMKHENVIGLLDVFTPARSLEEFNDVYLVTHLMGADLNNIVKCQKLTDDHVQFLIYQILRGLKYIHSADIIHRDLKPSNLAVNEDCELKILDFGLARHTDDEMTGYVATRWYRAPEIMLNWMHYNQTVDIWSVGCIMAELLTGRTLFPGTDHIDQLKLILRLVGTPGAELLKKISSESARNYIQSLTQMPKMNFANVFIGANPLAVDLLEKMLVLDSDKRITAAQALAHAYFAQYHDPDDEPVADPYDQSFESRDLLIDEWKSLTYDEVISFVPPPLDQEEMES

mouse [plasma] [1]: 2.72 µM
Compound: Cc1ccc(-c2cccc3cnc(Nc4ccc(-n5cnc(N6CCOCC6)n5)cc4)nc23)cn1 [9a]

PK properties (rat pharmacokinetics; data not shown, species not given): poor
Compound: Cc1ncn(-c2ccc(Nc3ncc4cccc(-c5nccs5)c4n3)cc2)n1 [9g]

selectivity over p38 (p38): > 500 fold | clearance (rat pharmacokinetics; rat, plasma, iv, 1 mg/kg): 6 mL/min/kg
Compound: Cn1cc(-c2ccc3cnc(Nc4ccc(-n5cnc(N6CCOCC6)n5)cc4)nc3c2Cl)cn1 [13a]

IC50 (p38): > 20 µM | selectivity over p38 (p38): > 2200 fold
Compound: Cn1cc(-c2ccc3cnc(Nc4ccc(-n5cnc(N6CCOCC6)n5)cc4)nc3c2-c2cnn(C)c2)cn1 [14d]

mouse [brain] [1]: 7.2 µM
Compound: Cn1cc(-c2ccc3cnc(Nc4ccc(-n5cnc(N6CCOCC6)n5)cc4)nc3c2)cn1 [compound 3]
